We go through 27 compounds from patent US20240327412A1, “FACTOR XIIA INHIBITORS” (KALVISTA PHARMACEUTICALS LIMITED, priority 2021, published 2024).

Molecules are shown by their SMILES.

The test concerns the target T1, Human Factor XIIa (Homo sapiens, UniProt P00748).
T1 construct: Proteolytic cleavage of FXII to heavy and light chains of FXIIa dramatically increases catalytic activity; purchased Enzyme Research Laboratories
T1 sequence (P00748 373-615 limits assumed): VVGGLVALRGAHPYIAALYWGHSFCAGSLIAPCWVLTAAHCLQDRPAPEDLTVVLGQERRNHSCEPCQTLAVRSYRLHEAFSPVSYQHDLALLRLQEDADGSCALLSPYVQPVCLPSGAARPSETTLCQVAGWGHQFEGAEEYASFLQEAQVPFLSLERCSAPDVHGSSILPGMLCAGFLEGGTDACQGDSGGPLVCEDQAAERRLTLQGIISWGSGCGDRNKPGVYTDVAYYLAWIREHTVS
T1 sequence (P00748 20-372 partner limits assumed): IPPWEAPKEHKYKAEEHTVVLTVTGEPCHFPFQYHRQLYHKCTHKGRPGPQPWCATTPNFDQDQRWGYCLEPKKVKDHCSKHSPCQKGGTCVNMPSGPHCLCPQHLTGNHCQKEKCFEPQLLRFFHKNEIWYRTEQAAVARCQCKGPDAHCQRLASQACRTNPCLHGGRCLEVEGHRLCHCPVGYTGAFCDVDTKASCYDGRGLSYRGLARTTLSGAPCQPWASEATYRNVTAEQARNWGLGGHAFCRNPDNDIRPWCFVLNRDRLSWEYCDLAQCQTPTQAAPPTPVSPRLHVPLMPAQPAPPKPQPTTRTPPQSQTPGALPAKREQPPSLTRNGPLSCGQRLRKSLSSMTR
Kind of test: Determination of FXIIa inhibition (fluorogenic substrate H-DPro-Phe-Arg-AFC, IC50 assay). It counts as biochemical. The following applies: substrate at Km concentration, 25° C.; category scale; read-out: Human FXII IC50 (nm). How it is done: In vitro inhibition of Factor XIIa was determined using an IC50 assay based on standard literature methods (see e.g Baeriswyl et al., ACS Chem. Biol., 2015, 10 (8) 1861; Bouckaert et al., European Journal of Medicinal Chemistry 110 (2016) 181). Human Factor XIIa (Enzyme Research Laboratories) was incubated at 25° C. with the fluorogenic substrate H-DPro-Phe-Arg-AFC (Peptide Protein Science) and various concentrations of the test compound. Protease activity was measured by monitoring the accumulation of liberated fluorescence from the substrate over 5 min at 25° C. The linear rate of fluorescence increase per minute was expressed as percentage (%) activity. The Km for the cleavage of the substrate by FXIIa was determined by standard transformation of the Michaelis-Menten equation. The compound inhibitor assays were performed at substrate Km concentration. IC50 values were calculated as the concentration of inhibitor giving 50% inhibition (IC50) of the uninhibited enzyme activity (100%).
One may read the IC50 as the concentration that inhibits the measured activity by half. In the case of `Nc1nccc2c(NCC34CC(COc5cccc(N6CCCC6=O)c5)(CO3)C4)cccc12` [Example 6653, 1-(3-((1-(((1-aminoisoquinolin-5-yl)amino)methyl)-2-oxabicyclo[2.1.1]hexan-4-yl)methoxy)phenyl)pyrrolidin-2-one], the IC50 lay in the range of 300 to 1000 nM. For `Nc1nccc2c(NCC34CC(COc5ccccc5N5CCCC5=O)(CO3)C4)cccc12` [Example 6654, 1-(2-((1-(((1-aminoisoquinolin-5-yl)amino)methyl)-2-oxabicyclo[2.1.1]hexan-4-yl)methoxy)phenyl)pyrrolidin-2-one], the IC50 lay within 10000 to 40000 nM. Turning to `Cc1cnc2ccc(OCC34COC(CNc5ccccc5C#N)(C3)C4)cn12` [Example 6658, 2-(((4-(((3-methylimidazo[1,2-a]pyridin-6-yl)oxy)methyl)-2-oxabicyclo[2.1.1]hexan-1-yl)methyl)amino)benzonitrile], the IC50 lay within 10000 to 40000 nM. Regarding `Cc1cnc2ccc(OCC34COC(CNc5ccccc5CC(F)(F)F)(C3)C4)cn12` [Example 6659, N-((4-(((3-methylimidazo[1,2-a]pyridin-6-yl)oxy)methyl)-2-oxabicyclo[2.1.1]hexan-1-yl)methyl)-2-(2,2,2-trifluoroethyl)aniline], the IC50 fell in the range of 40000 to 100000 nM. Under `Cc1cnc2ccc(OCC34COC(CNc5ccnc(N)c5)(C3)C4)cn12` [Example 6660, N4-((4-(((3-methylimidazo[1,2-a]pyridin-6-yl)oxy)methyl)-2-oxabicyclo[2.1.1]hexan-1-yl)methyl)pyridine-2,4-diamine] stands 3000 to 10000 nM; under `Cc1cnc2ccc(OCC34COC(CNc5cccnc5)(C3)C4)cn12` [Example 6661, N-((4-(((3-methylimidazo[1,2-a]pyridin-6-yl)oxy)methyl)-2-oxabicyclo[2.1.1]hexan-1-yl)methyl)pyridin-3-amine], 10000 to 40000 nM; under `CC1(C)OC2(COc3cccc4c(N)nccc34)CC1(COc1ccn3ccnc3c1)C2` [Example 7702, 5-((4-((imidazo[1,2-a]pyridin-7-yloxy)methyl)-3,3-dimethyl-2-oxabicyclo[2.1.1]hexan-1-yl)methoxy)isoquinolin-1-amine], 300 to 1000 nM. Take `Nc1nccc2c(NCC34CC(COc5ccc6nncn6c5)(CCO3)C4)cccc12` [Example 10929, N5-((5-(([1,2,4]triazolo[4,3-a]pyridin-6-yloxy)methyl)-2-oxabicyclo[3.1.1]heptan-1-yl)methyl)isoquinoline-1,5-diamine]: the IC50 lay within 300 to 1000 nM. In the case of `Cc1cnc2cc(OCC34CCOC(CNc5cccc6c(N)nccc56)(C3)C4)ccn12` [Example 10930, N5-((5-(((3-methylimidazo[1,2-a]pyridin-7-yl)oxy)methyl)-2-oxabicyclo[3.1.1]heptan-1-yl)methyl)isoquinoline-1,5-diamine], the IC50 was 10 to 100 nM.

In the case of `Nc1nccc2c(NCC34CC(COc5ccc6c(c5)CNC6=O)(CCO3)C4)cccc12` [Example 10931, 5-((1-(((1-aminoisoquinolin-5-yl)amino)methyl)-2-oxabicyclo[3.1.1]heptan-5-yl)methoxy)isoindolin-1-one], the IC50 was 10 to 100 nM. Take `Nc1nccc2c(NCC34CC(COc5ccn6c(C(F)(F)F)cnc6c5)(CCO3)C4)cccc12` [Example 10932, N5-((5-(((3-(trifluoromethyl)imidazo[1,2-a]pyridin-7-yl)oxy)methyl)-2-oxabicyclo[3.1.1]heptan-1-yl)methyl)isoquinoline-1,5-diamine]: the IC50 fell in the range of 100 to 300 nM. Under `Cn1cc(Cl)c(OCC23CCOC(CNc4cccc5c(N)nccc45)(C2)C3)cc1=O` [Example 10933, 4-((1-(((1-aminoisoquinolin-5-yl)amino)methyl)-2-oxabicyclo[3.1.1]heptan-5-yl)methoxy)-5-chloro-1-methylpyridin-2(1H)-one] stands 1000 to 3000 nM; under `CC(C)n1ccc(OCC23CCOC(CNc4cccc5c(N)nccc45)(C2)C3)cc1=O` [Example 10934, 4-((1-(((1-aminoisoquinolin-5-yl)amino)methyl)-2-oxabicyclo[3.1.1]heptan-5-yl)methoxy)-1-isopropylpyridin-2(1H)-one], 300 to 1000 nM; under `Nc1nccc2c(NCC34CC(COc5ccon5)(CCO3)C4)cccc12` [Example 10936, N5-((5-((isoxazol-3-yloxy)methyl)-2-oxabicyclo[3.1.1]heptan-1-yl)methyl)isoquinoline-1,5-diamine], 3000 to 10000 nM.

Take `Nc1nccc2c(NCC34CC(COc5ccncn5)(CCO3)C4)cccc12` [Example 10937, N5-((5-((pyrimidin-4-yloxy)methyl)-2-oxabicyclo[3.1.1]heptan-1-yl)methyl)isoquinoline-1,5-diamine]: the 50% inhibitory concentration (IC50) was 3000 to 10000 nM.

`Nc1nccc2c(NCC34CC(COc5ccc6c(c5)CCNC6=O)(CCO3)C4)cccc12` [Example 10938, 6-((1-(((1-aminoisoquinolin-5-yl)amino)methyl)-2-oxabicyclo[3.1.1]heptan-5-yl)methoxy)-3,4-dihydroisoquinolin-1(2H)-one]: the half-maximal inhibitory concentration (IC50) lay in the range of 300 to 1000 nM. For the compound `CN1CCc2cc(OCC34CCOC(CNc5cccc6c(N)nccc56)(C3)C4)ccc2C1=O` [Example 10939, 6-((1-(((1-aminoisoquinolin-5-yl)amino)methyl)-2-oxabicyclo[3.1.1]heptan-5-yl)methoxy)-2-methyl-3,4-dihydroisoquinolin-1(2H)-one], the IC50 lay in the range of 300 to 1000 nM. Turning to `Nc1nccc2c(NCC34CC(COc5ccc6c(c5)C(=O)NC6)(CCO3)C4)cccc12` [Example 10941, 6-((1-(((1-aminoisoquinolin-5-yl)amino)methyl)-2-oxabicyclo[3.1.1]heptan-5-yl)methoxy)isoindolin-1-one], the half-inhibitory concentration (IC50) was in the range of 300 to 1000 nM. As for `Cn1cc(OCC23CCOC(CNc4cccc5c(N)nccc45)(C2)C3)ccc1=O` [Example 10943, 5-((1-(((1-aminoisoquinolin-5-yl)amino)methyl)-2-oxabicyclo[3.1.1]heptan-5-yl)methoxy)-1-methylpyridin-2(1H)-one], the IC50 fell in the range of 1000 to 3000 nM. Take `COc1cc(OCC23CCOC(CNc4cccc5c(N)nccc45)(C2)C3)ccn1` [Example 10944, N5-((5-(((2-methoxypyridin-4-yl)oxy)methyl)-2-oxabicyclo[3.1.1]heptan-1-yl)methyl)isoquinoline-1,5-diamine]: the concentration for half-maximal inhibition (IC50) was 1000 to 3000 nM. As to `Cn1c(OCC23CCOC(CNc4cccc5c(N)nccc45)(C2)C3)cccc1=O` [Example 10945, 6-((1-(((1-aminoisoquinolin-5-yl)amino)methyl)-2-oxabicyclo[3.1.1]heptan-5-yl)methoxy)-1-methylpyridin-2(1H)-one], the concentration for half-maximal inhibition (IC50) was 3000 to 10000 nM.

With `Cn1nncc1OCC12CCOC(CNc3cccc4c(N)nccc34)(C1)C2` [Example 10946, N5-((5-(((1-methyl-1H-1,2,3-triazol-5-yl)oxy)methyl)-2-oxabicyclo[3.1.1]heptan-1-yl)methyl)isoquinoline-1,5-diamine], the IC50 lay in the range of 3000 to 10000 nM. Under `CC(C)c1cc(OCC23CCOC(CNc4cccc5c(N)nccc45)(C2)C3)ncn1` [Example 10948, N5-((5-(((6-isopropylpyrimidin-4-yl)oxy)methyl)-2-oxabicyclo[3.1.1]heptan-1-yl)methyl)isoquinoline-1,5-diamine] stands 1000 to 3000 nM; under `CC(C)c1cc(OCC23CCOC(CNc4cccc5c(N)nccc45)(C2)C3)cc(=O)n1C` [Example 10949, 4-((1-(((1-aminoisoquinolin-5-yl)amino)methyl)-2-oxabicyclo[3.1.1]heptan-5-yl)methoxy)-6-isopropyl-1-methylpyridin-2(1H)-one], 300 to 1000 nM; under `Cn1c(C(F)(F)F)cc(OCC23CCOC(CNc4cccc5c(N)nccc45)(C2)C3)cc1=O` [Example 10951, 4-((1-(((1-aminoisoquinolin-5-yl)amino)methyl)-2-oxabicyclo[3.1.1]heptan-5-yl)methoxy)-1-methyl-6-(trifluoromethyl)pyridin-2(1H)-one], 300 to 1000 nM. As to `Cc1cc(OCC23CCOC(CNc4cccc5c(N)nccc45)(C2)C3)ccn1` [Example 10953, N5-((5-(((2-methylpyridin-4-yl)oxy)methyl)-2-oxabicyclo[3.1.1]heptan-1-yl)methyl)isoquinoline-1,5-diamine], the half-inhibitory concentration (IC50) lay in the range of 100 to 300 nM.

Consider `COc1ccncc1OCC12CCOC(CNc3cccc4c(N)nccc34)(C1)C2` [Example 10954, N5-((5-(((4-methoxypyridin-3-yl)oxy)methyl)-2-oxabicyclo[3.1.1]heptan-1-yl)methyl)isoquinoline-1,5-diamine], for which the half-maximal inhibitory concentration (IC50) was in the range of 3000 to 10000 nM.
